In patent US7488738B2, “Aminophenoxyacetic acid derivatives and pharmaceutical composition containing thereof” (Asubio Pharma Co., Ltd., priority 1998, dated 2009):

How the values were obtained:
calbindin D28Kd = test: Calbindin D28Kd inducing effect (western blot); format: cell-based, rats of Wister strain; settings: fetal rat cerebral cortex cells, none-treated control = 100
Description: Biological Test 2: Calbindin D28Kd Inducing Effect
In accordance with the method of M. P. Mattoson [M. P. Mattoson, Brain Res. Rev., 13, 179 (1988)], brain of 18-days fetus rats of Wister strain were taken out. Then, cells of cerebral cortex (5,500 cells/m^2) were seeded on poly-L-lysine coated 6 wells plate (Falcon) (3.5 mm, Sumilon) and incubated for 7 days.
Test compounds were added on culture day 5, and after 7 days of incubation, the protein was extracted with homogenized buffer-solution [containing 20 mM of Tris-HCl (pH=7.4), 1 mM of EDTA, and 0.1 mM of phenylmethylsulfonyl fluoride].
The effect of the test compounds was determined by the western blot technique using polyclonal anti calbindine D28K (Swant Co., Ltd.) as antibody.
In the table, the amount of induced calbindine D28Kd of the control group (none-treated group) was indicated as 100 percents.

[1] = test system: rats of slc:Wister strain; test: Cerebral edema suppressing effect (brain injury by metal screw); format: in vivo; settings: 3 mg/kg intravenously just after operation; rat; water content of injured hemisphere 6 days after operation
Description: Biological Test 3: Cerebral Edema Suppressing Effect 8-week-old rats of slc:Wister strain were used. Rats were anesthetized by intraperitoneal administration of 50 mg/kg of Nembutal (Trade Name), and then, fixed on brain fixactor. The sterile metal screw (3.75 mm in length/1.0 mm in diameter/0.75 mm in length of screw thread) was plugged in the 1.5 mm right and 0.8 mm rear side of the bregma to press frontparietal cortex organ to cause brain injury. 6 days after the operation, the whole brain was taken out and right cerebral hemisphere (injured side) was isolated. After measurement of the wet weight of the cerebral hemisphere, it was dried at 110° C. for 24 hours on aluminum foil. The dry weight of the cerebral hemisphere was measured, and the water content was calculated by using the following formula: Water content (%)=[(wet weight of hemisphere−dry weight of hemisphere)/wet weight of hemisphere]×100 The test compounds were intravenously administered just after the operation via tail vein of the rats.

cells of cerebral cortex = test: Cytoprotective effect against glutamate induced cell death (MTT); format: cell-based, rats of Wister strain; settings: compound 1 μM added 24 h before 1 mM glutamate, fetal rat cerebral cortex cells, control group = 100%, read-out: Survival Rate (%) (Compound: 1 μM)

Cc1cc(C)c(NCC(=O)N(C)C2CCN(C(=O)c3ccccc3)CC2)c(C)c1N [Compound 128, 2-(3-Amino-2,4,6-trimethylanilino)-N-(1-benzoyl-4-piperidinyl)-N-methylacetamide] was tested, and the “Amount of induced Calbindine D28Kd (% vs. control) (Compound: 1 μM)” value (calbindin D28Kd) was 171 % vs. control, the “Cerebral edema suppressing rate (%)” value [1] was 20.3% and the viability at 1 µM (cells of cerebral cortex) was 81%.
